According to patent US9669028B2, “Substituted 5-(pyrazin-2-yl)-1H-pyrazolo [3, 4-B] pyridine and pyrazolo [3, 4-B] pyridine derivatives as protein kinase inhibitors” (Arrien Pharmaceuticals LLC, priority 2011, dated 2017):

Legend:
Format in all cases: biochemical
DYRK1A = DYRK1A (Homo sapiens (Human), UniProt Q13627); assay: In vitro DYRK1A inhibition assay
Protocol: (§1) Briefly, specific kinase/substrate pairs along with required cofactors were prepared in reaction buffer; 20 mM Hepes (pH 7.5), 10 mM MgCl2, 1 mM EGTA, 0.02% Brij35, 0.02 mg/ml BSA, 0.1 mM Na3VO4, 2 mM DTT, 1% DMSO. Compounds were delivered into the reaction, followed ˜20 min later by addition of a mixture of ATP (Sigma) and 33P ATP (PerkinElmer) to a final concentration of 10 μM. […] IC50 values and curve fits were obtained using Prism (GraphPad Software). Kinome tree representations were prepared using Kinome Mapper (http://www.reactionbiology.com/apps/kinome/mapper/Launch Kinome.htm).
The 2×DYRK1A/Ser/Thr 18 mixture was prepared in 50 mM HEPES pH 7.5, 0.01% BRIJ-35, 10 mM MgCl2, 1 mM EGTA.

LRRK2 G2019S = LRRK2 G2019S (Homo sapiens (Human), UniProt Q5S007, G2019S); assay: LRRK2 G2019S Kinase Assay; conditions: 10 μM ATP
Protocol: Procedure: Enzyme was incubated with substrate peptide in reaction buffer in the presence and absence of test compounds or Staurosporine. All additions were done on ice, followed by the addition of ATP mix. Wells were uniformly mixed using an Eppendorff plate shaker and incubated at 30° C. for 20 min, and stopped by the addition of 5 μl of 3% phosphoric acid. Volume was increased to 100 μl by adding 0.8% phosphoric acid which was then transferred to PC filter mats (Millipore), pre-equilibrated with 70% ethanol and water. Plates were washed thrice with 100 μl 0.8% phosphoric acid and dried for an hour at 60° C. 100 μl scintillation fluid was added into each well and reading taken in Perkin Elmer TOPCOUNT beta counter. […] A validation EC50 curve was generated by plotting CPM for each Staurosporine concentration on y-axis against the Log concentration of Staurosporine (nM) on the x-axis followed by a best fit curve through the points.
After 1 hour Kinase Reaction incubation, 5 μL of Detection Mix was added.

LRRK2 = LRRK2 (Homo sapiens (Human), UniProt Q5S007); assay: LRRK2 Kinase Assay; conditions: 10 μM ATP
Protocol: as §1
For the wild type LRRK the 2×LRRK2/ERM (LRRKtide) mixture was prepared in 50 mM Tris pH 8.5, 0.01% BRIJ-35, 10 mM MgCl2, 1 mM EGTA, 0.02% NaN3. […] After 1 hour Kinase Reaction incubation, 5 μL of Detection Mix was added.

Sequence of LRRK2 G2019S (Q5S007 970-2527 G2019S): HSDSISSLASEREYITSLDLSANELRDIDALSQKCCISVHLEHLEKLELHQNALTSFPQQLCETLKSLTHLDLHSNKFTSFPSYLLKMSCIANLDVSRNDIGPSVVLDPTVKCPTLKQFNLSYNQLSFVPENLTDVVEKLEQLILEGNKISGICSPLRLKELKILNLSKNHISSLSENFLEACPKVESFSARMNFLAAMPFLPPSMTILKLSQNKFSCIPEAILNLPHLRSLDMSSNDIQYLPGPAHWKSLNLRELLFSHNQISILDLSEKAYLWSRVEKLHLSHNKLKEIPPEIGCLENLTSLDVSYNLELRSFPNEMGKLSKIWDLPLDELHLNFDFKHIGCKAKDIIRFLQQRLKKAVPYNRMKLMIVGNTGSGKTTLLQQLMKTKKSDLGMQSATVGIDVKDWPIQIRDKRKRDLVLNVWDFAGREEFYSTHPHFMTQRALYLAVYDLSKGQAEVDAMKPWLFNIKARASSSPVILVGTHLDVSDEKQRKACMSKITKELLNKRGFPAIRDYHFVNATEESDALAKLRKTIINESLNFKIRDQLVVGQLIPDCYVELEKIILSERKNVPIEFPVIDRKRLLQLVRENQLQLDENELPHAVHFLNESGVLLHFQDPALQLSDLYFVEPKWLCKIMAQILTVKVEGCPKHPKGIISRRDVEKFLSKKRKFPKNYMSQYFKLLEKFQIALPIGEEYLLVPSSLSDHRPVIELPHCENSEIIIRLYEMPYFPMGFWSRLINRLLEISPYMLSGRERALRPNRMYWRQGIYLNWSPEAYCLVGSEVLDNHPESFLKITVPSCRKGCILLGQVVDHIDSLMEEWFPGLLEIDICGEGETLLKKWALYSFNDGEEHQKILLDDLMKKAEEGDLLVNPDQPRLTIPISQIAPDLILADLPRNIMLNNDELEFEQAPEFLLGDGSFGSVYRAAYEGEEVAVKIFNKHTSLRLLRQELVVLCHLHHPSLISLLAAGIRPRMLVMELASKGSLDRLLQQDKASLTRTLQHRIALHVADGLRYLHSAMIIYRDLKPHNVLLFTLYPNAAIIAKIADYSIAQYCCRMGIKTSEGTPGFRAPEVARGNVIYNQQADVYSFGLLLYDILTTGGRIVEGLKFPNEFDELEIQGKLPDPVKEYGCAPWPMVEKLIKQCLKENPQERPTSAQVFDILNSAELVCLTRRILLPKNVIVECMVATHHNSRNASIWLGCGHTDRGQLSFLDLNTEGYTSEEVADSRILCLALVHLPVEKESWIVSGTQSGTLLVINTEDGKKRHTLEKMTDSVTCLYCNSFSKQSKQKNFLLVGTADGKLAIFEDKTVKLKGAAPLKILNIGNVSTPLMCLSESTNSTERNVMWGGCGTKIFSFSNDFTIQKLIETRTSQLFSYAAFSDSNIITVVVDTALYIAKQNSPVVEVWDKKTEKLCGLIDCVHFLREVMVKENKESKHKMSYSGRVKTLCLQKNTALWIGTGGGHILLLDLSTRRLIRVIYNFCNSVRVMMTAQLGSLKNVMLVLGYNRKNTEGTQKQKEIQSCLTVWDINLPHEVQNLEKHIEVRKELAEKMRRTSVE
Sequence of LRRK2 (Q5S007 970-2527): as the sequence (Q5S007 970-2527 G2019S) above, with S1050G counted along it

Compound	IC50 (DYRK1A) [nM]	IC50 (LRRK2 G2019S) [nM]	IC50 (LRRK2) [nM]
Cc1n[nH]c2ncc(-c3cncc(C(=O)N4CCCCC4)n3)cc12 [Compound 77, (6-(3-methyl-1H-pyrazolo[3,4-b]pyridin-5-yl)pyrazin-2-yl)(piperidin-1-yl)metha-none]	> 1000	> 500	> 500
Cc1n[nH]c2ncc(-c3cccc(NC4CCN(C)CC4)c3)cc12 [Compound 98, 1-methyl-N-(3-(3-methyl-1H-pyrazolo[3,4-b]pyridin-5-yl)phenyl)piperidin-4-amine]	> 1000	> 1000	> 1000
Cc1n[nH]c2ncc(-c3cnn(C)c3)cc12 [Compound 108, 3-methyl-5-(1-methyl-1H-pyrazol-4-yl)-1H-pyrazolo[3,4-b]pyridine]	> 500	> 500	> 500
CN(C)CCNc1cncc(-c2cnc3[nH]ccc3c2)n1 [Compound 127, N1-(6-(1H-pyrrolo[2,3-b]pyridin-5-yl)pyrazin-2-yl)-N2,N2-dimethylethane-1,2-diamine]	> 500	> 500	> 500
c1cnc(N2CCCC2)c(-c2cnc3[nH]ccc3c2)n1 [Compound 128, 5-(3-(pyrrolidin-1-yl)pyrazin-2-yl)-1H-pyrrolo[2,3-b]pyridine]	> 500	> 500	> 500
O=C1CCCN1c1cncc(-c2cnc3[nH]ccc3c2)n1 [Compound 131, 1-(6-(1H-pyrrolo[2,3-b]pyridin-5-yl)pyrazin-2-yl)pyrrolidin-2-one]	> 500	> 500	> 500
FC1(F)CCN(c2cncc(-c3cnc4[nH]ccc4c3)n2)C1 [Compound 135, 5-(6-(3,3-difluoropyrrolidin-1-yl)pyrazin-2-yl)-1H-pyrrolo[2,3-b]pyridine]	> 500	> 500	> 500

Results, then the compound that gave them:

IC50 (DYRK1A) [nM]	IC50 (LRRK2 G2019S) [nM]	IC50 (LRRK2) [nM]	Compound
< 500	< 500	< 500	Cc1n[nH]c2ncc(-c3cncc(NC4CCN(CCO)CC4)n3)cc12 [Compound 81, 2-(4-((6-(3-methyl-1H-pyrazolo[3,4-b]pyridin-5-yl)pyrazin-2-yl)amino)piperidin-1-yl)ethanol]
> 500	> 500	> 500	Cc1n[nH]c2ncc(-c3cncc(N4CCNC(=O)C4)n3)cc12 [Compound 83, 4-(6-(3-methyl-1H-pyrazolo[3,4-b]pyridin-5-yl)pyrazin-2-yl)piperazin-2-one]
> 500	> 500	> 500	Cc1n[nH]c2ncc(-c3cncc(NC4CCN(C(C)C)CC4)n3)cc12 [Compound 87, N-(1-isopropylpiperidin-4-yl)-6-(3-methyl-1H-pyrazolo[3,4-b]pyridin-5-yl)pyrazin-2-amine]
< 500	< 500	< 500	Cc1n[nH]c2ncc(-c3cncc(N4CCc5ccccc54)n3)cc12 [Compound 90, 5-(6-(indolin-1-yl)pyrazin-2-yl)-3-methyl-1H-pyrazolo[3,4-b]pyridine]
> 500	< 500	< 500	Cc1n[nH]c2ncc(-c3cncc(Nc4cccc(N5CCCC5=O)c4)n3)cc12 [Compound 94, 1-(3-((6-(3-methyl-1H-pyrazolo[3,4-b]pyridin-5-yl)pyrazin-2-yl)amino)phenyl)pyrrolidin-2-one]
> 500	> 500	> 500	Cc1n[nH]c2ncc(-c3cccc(NC4CCN(C)CC4)n3)cc12 [Compound 102, 6-(3-methyl-1H-pyrazolo[3,4-b]pyridin-5-yl)-N-(1-methylpiperidin-4-yl)pyridin-2-amine]
< 500	< 500	< 500	CN1CCN(c2cncc(-c3cnc4[nH]ccc4c3)n2)CC1 [Compound 125, 5-(6-(4-methylpiperazin-1-yl)pyrazin-2-yl)-1H-pyrrolo[2,3-b]pyridine]
< 500	< 500	< 500	OCCN1CCN(c2cncc(-c3cnc4[nH]ccc4c3)n2)CC1 [Compound 126, 2-(4-(6-(1H-pyrrolo[2,3-b]pyridin-5-yl)pyrazin-2-yl)piperazin-1-yl)ethanol]
